Patent US20250345287A1, “COMPOSITION COMPRISING A MIXTURE OF AT LEAST ONE OIL AND ONE OR MORE SEMIFLUORINATED ALKANES, A USE OF THE COMPOSITION FOR TREATING A DISEASE AS WELL AS A METHOD OF PRODUCING THE COMPOSITION AND CORRESPONDING KITS” (Fluoron GmbH, priority 2024, published 2025)
Where two headings read alike, the source gives them in different places.

Assay: Drug solubility/uptake in VitreoDens, posterior segment model
Procedure: Drugs were dissoluted in BSS in clinically relevant concentrations and placed in direct contact with VitreoDens in a ratio of 1:9. 50 μl of the hydrophilic phase were removed from the experiment after 1, 6 and 24 hours and drug concentration was determined using HPLC.
For all the tested small molecule drugs HPLC or HPLC-MS (Agilent 1100 Series) with a reversed-phase C18 column (Chromolith® Performance RP-18e, Merck KGaA Darmstadt, Germany) was performed. Calibration curves and exemplary HPLC runs for each active substance are presented in the Supplementary Materials.
Thus, the solubility of a variety of drugs was tested in VitreoDens in an established posterior segment model (FIGS. 7A and 7B) A >90% fill is mostly thought of as a sufficient fill. Thus, this ratio, given a vitreous cavity volume of 5 ml, was recreated in negatively charged glass vials. First, the drug is injected into the hydrophilic phase at a certain concentration, aliquots of the hydrophilic phase are recovered after certain time points to assess the distribution of the drug in the hydrophilic phase and in VitreoDens (FIG. 7A).

| SMILES | solubility in VitreoDens | solubility in VitreoDens (in-vitro, posterior segment model, FIG. 7C) |
| --- | --- | --- |
| C=CC[C@@H]1/C=C(\C)C[C@H](C)C[C@H](OC)[C@H]2O[C@@](O)(C(=O)C(=O)N3CCCC[C@H]3C(=O)O[C@H](/C(C)=C/[C@@H]3CC[C@@H](O)[C@H](OC)C3)[C@H](C)[C@@H](O)CC1=O)[C@H](C)C[C@@H]2OC [Tacrolimus] | excellent solubility | – |
| C[C@@H](c1ncncc1F)[C@](O)(Cn1cncn1)c1ccc(F)cc1F [voriconazole] | excellent solubility | – |
| O=c1[nH]cc(F)c(=O)[nH]1 [5-Fluoruracil] | – | excellent solubility |
| CC(=O)[C@]1(O)Cc2c(O)c3c(c(O)c2[C@@H](O[C@H]2C[C@H](N)[C@H](O)[C@H](C)O2)C1)C(=O)c1ccccc1C3=O [Idarubicin] | excellent solubility | – |
